Columns and labels:
[1] = Penetration of P11-4 (200 ppm, spiked with 10 ppm ATTO647-P11-4, 25 mM TRIS) into artificial subsurface lesions, confocal microscopy; parameters: species or system human; key to presence of fluorescent P11-4 in lesion, 6 d / presence of fluorescent P11-4 in lesion, 1 min / presence of fluorescent P11-4 in lesion, 2 min / presence of fluorescent P11-4 in lesion, 5 min / presence of fluorescent P11-4 in lesion, 4 d: 1 = no or low presence; 4 = high presence of fluorescent P11-4; Average presence of P11-4: scale not given here; conditions: for presence of fluorescent P11-4 in lesion, 1 min: 1 min incubation; for presence of fluorescent P11-4 in lesion, 2 min: 2 min incubation; for presence of fluorescent P11-4 in lesion, 5 min: 5 min incubation; for presence of fluorescent P11-4 in lesion, 6 d: washing in H2O; for presence of fluorescent P11-4 in lesion, 4 d: washing in Remin. buffer
Procedure: Creation of artificial lesions on extracted human molar teeth was performed as described by Lo et al. 2010 (J Dent. 38(4):352-359). To define the position of the demineralized subsurface area (i.e., artificial carious lesion or white spot), the tooth was covered with colourless nail varnish, leaving a window of approximately 4×4 mm. The tooth was placed in demineralization buffer (2.2 mM CaCl2, 2.2 mM NaH2PO4, 50 mM acetic acid; pH adjusted with 1 M KOH to 4.4) for 3 d at 37° C. To ensure that all pores are open, as in a typical active caries lesion, the resulting subsurface lesions were treated with 10 μL of 2% NaClO (incubation for 1 min), rinsed, and air-dried at room temperature.
• A 200 ppm (i.e., 200 μg/ml) solution of P11-4 (SEQ ID NO: 2), spiked with 10 ppm ATTO647-P11-4 (fluorescence labelled P11-4 (SEQ ID NO: 6): Ac-QQRFEWEFEQQSGSGC-(ATTO647)-NH2), i.e., 1:20, in 25 mM TRIS buffer was prepared at different pH, in particular, at 8.4 or 8.5 or 6.3, 6.5 or 6.8) • As specified in the table below, tooth were optionally pretreated, e.g., by incubation in human saliva for one day (about 24 hours), optionally followed by 5 min sonication (258 hz with a sonic toothbrush, Sonicare Diamond Clean® (Philips)) or by immersion in 2% NaClO for 1 min. • Tooth were immersed in the P11-4 solution for a defined period of time, 1, 2 or 5 min, and then removed and washed in water for 10 min or in remineralization buffer (2 mM Ca(NO3), 1.2 mM KHPO4, and 60 mM Tris/HCl, pH adjusted to 7.4 with 1 M KOH) for 4 days and/or 6 days. • Confocal assessment after 1, 2 or 5 min incubation was carried out while the teeth were in P11-4 solution, and optionally, after washing in water or in remineralization buffer after 10 min or 4 or 6 days. c) Confocal Microscopy
Samples were placed in a μ-slide I (ibidi, Martinsried) in dest. water and analyzed by a confocal laser microscope (Olympus IX81). The recorded stack of four 2-dimensional images each projected the lesion volume of 51.4 μm thickness, giving a total assessment depth of 205 μm (objective: UPLSAPO 20×/NA 0.75; helium-neon gas laser; excitation: 633 nm and emission: 668 nm). Images were analyzed by Olympus software (FluoView FV1000).

[2] = pH at which the peptide starts to undergo self-assembly; assay type: physicochemical; conditions: in solution
Text: As used herein, the pH at which the self-assembling peptide starts to undergo self-assembly refers to the pH below which a significant extent of self-assembly of the peptides in solution is observed, which means that at least about 25%, about 30%, about 35%, about 40%, about 45%, about 50%, about 55%, about 60%, about 65%, about 70%, about 75%, about 80%, about 85%, about 90%, about 95%, about 99% or even about 100% of the peptides found in the dental care product are assembled. In a preferred embodiment, at least about 25% of the peptides found in the dental care product are assembled below the pH at which the peptide starts to undergo self-assembly.
Further, the skilled person is aware of numerous methods to determine the pH at which a peptide of the present invention will start self-assembly at a given ionic strength. Suitable methods are denoted e.g. in a publication by Aggeli et al. (2003, J Am Chem Soc, 125, 9619-9628).

[3] = 200 ppm in a slightly basic buffer
[4] = tooth 1, pH 8.4, no pretreatment
[5] = tooth 2, pH 8.4, no pretreatment
[6] = tooth 3, pH 6.3, saliva pre-incubation
[7] = tooth 4, pH 6.3, no pretreatment
[8] = tooth 5, pH 8.5, saliva pre-incubation
[9] = tooth 10, pH 8.5, no pretreatment
[10] = tooth 11, pH 8.5, saliva pre-incubation
[11] = tooth 12, pH 6.5, no pretreatment
[12] = tooth 13, pH 6.8, saliva pre-incubation
[13] = tooth ZR1, pH 8.5, sonification pretreatment
[14] = tooth ZR2, pH 8.5, saliva pre-incubation then NaClO
[15] = tooth ZR3, pH 8.5, saliva pre-incubation then sonification
[16] = tooth ZR4, pH 8.5, saliva pre-incubation

Ac-QQRFEWEFEQQSGSGC-(ATTO647)-NH2 (Ac-QQRFEWEFEQQSGSGC(ATTO647)-NH2) [fluorescent P11-4]
diffusion of monomeric peptide into artificial carious lesions [1, 3]: can diffuse into the artificial carious lesions and form a stable network there | peptide detected outside the lesions [1, 3]: No significant amounts | effect of pre-incubation with human saliva (pellicle) on presence of fluorescent peptide on the tooth or in the lesions ([1]; pH 8.5, 1, 2, or 5 min, teeth 11, 5 and ZR4, versus no pre-incubation): significantly lower presence | Average presence of P11-4 [1, 4]: 2.7 | presence of fluorescent P11-4 in lesion, 1 min [1, 4]: 4 | presence of fluorescent P11-4 in lesion, 2 min [1, 4]: 2 | presence of fluorescent P11-4 in lesion, 5 min [1, 4]: 2 | presence of fluorescent P11-4 in lesion, 1 min [1, 5]: 1 | presence of fluorescent P11-4 in lesion, 2 min [1, 5]: 3 | presence of fluorescent P11-4 in lesion, 5 min [1, 5]: 3 | Average presence of P11-4 ([1]; tooth 2, pH 8.4, no pretreatment, H2O wash): 2.0 | presence of fluorescent P11-4 in lesion, 6 d [1, 5]: 1 | presence of fluorescent P11-4 in lesion, 1 min [1, 6]: 1 | presence of fluorescent P11-4 in lesion, 2 min [1, 6]: 1 | presence of fluorescent P11-4 in lesion, 5 min [1, 6]: 1 | Average presence of P11-4 ([1]; tooth 3, pH 6.3, saliva pre-incubation, H2O wash): 1.0 | presence of fluorescent P11-4 in lesion, 6 d [1, 6]: 1 | presence of fluorescent P11-4 in lesion, 1 min [1, 7]: 1 | presence of fluorescent P11-4 in lesion, 2 min [1, 7]: 1 | presence of fluorescent P11-4 in lesion, 5 min [1, 7]: 2 | Average presence of P11-4 ([1]; tooth 4, pH 6.3, no pretreatment, H2O wash): 1.3 | presence of fluorescent P11-4 in lesion, 6 d [1, 7]: 1 | Average presence of P11-4 [1, 8]: 1.3 | presence of fluorescent P11-4 in lesion, 1 min [1, 8]: 2 | presence of fluorescent P11-4 in lesion, 2 min [1, 8]: 1 | presence of fluorescent P11-4 in lesion, 5 min [1, 8]: 1 | presence of fluorescent P11-4 in lesion, 1 min [1, 9]: 1 | presence of fluorescent P11-4 in lesion, 2 min [1, 9]: 4 | presence of fluorescent P11-4 in lesion, 5 min [1, 9]: 4 | Average presence of P11-4 ([1]; tooth 10, pH 8.5, no pretreatment, Remin. buffer wash): 2.8 | presence of fluorescent P11-4 in lesion, 4 d [1, 9]: 2 | presence of fluorescent P11-4 in lesion, 1 min [1, 10]: 1 | presence of fluorescent P11-4 in lesion, 2 min [1, 10]: 1 | presence of fluorescent P11-4 in lesion, 5 min [1, 10]: 1 | Average presence of P11-4 ([1]; tooth 11, pH 8.5, saliva pre-incubation, Remin. buffer wash): 1.0 | presence of fluorescent P11-4 in lesion, 4 d [1, 10]: 1 | presence of fluorescent P11-4 in lesion, 1 min [1, 11]: 2 | presence of fluorescent P11-4 in lesion, 2 min [1, 11]: 3.5 | presence of fluorescent P11-4 in lesion, 5 min [1, 11]: 2 | Average presence of P11-4 ([1]; tooth 12, pH 6.5, no pretreatment, Remin. buffer wash): 2.1 | presence of fluorescent P11-4 in lesion, 4 d [1, 11]: 1 | presence of fluorescent P11-4 in lesion, 1 min [1, 12]: 1 | presence of fluorescent P11-4 in lesion, 2 min [1, 12]: 2 | presence of fluorescent P11-4 in lesion, 5 min [1, 12]: 2 | Average presence of P11-4 ([1]; tooth 13, pH 6.8, saliva pre-incubation, Remin. buffer wash): 1.5 | presence of fluorescent P11-4 in lesion, 4 d [1, 12]: 1 | Average presence of P11-4 [1, 13]: 4.0 | presence of fluorescent P11-4 in lesion, 1 min [1, 13]: 4 | presence of fluorescent P11-4 in lesion, 2 min [1, 13]: 4 | presence of fluorescent P11-4 in lesion, 5 min [1, 13]: 4 | Average presence of P11-4 [1, 14]: 3.7 | presence of fluorescent P11-4 in lesion, 1 min [1, 14]: 3 | presence of fluorescent P11-4 in lesion, 2 min [1, 14]: 4 | presence of fluorescent P11-4 in lesion, 5 min [1, 14]: 4 | Average presence of P11-4 [1, 15]: 2.3 | presence of fluorescent P11-4 in lesion, 1 min [1, 15]: 1 | presence of fluorescent P11-4 in lesion, 2 min [1, 15]: 3 | presence of fluorescent P11-4 in lesion, 5 min [1, 15]: 3 | Average presence of P11-4 [1, 16]: 1.3 | presence of fluorescent P11-4 in lesion, 1 min [1, 16]: 1 | presence of fluorescent P11-4 in lesion, 2 min [1, 16]: 1 | presence of fluorescent P11-4 in lesion, 5 min [1, 16]: 2

CH3CO-QQRFEWEFEQQ-NH2 (Ac-QQRFEWEFEQQ-NH2) [terminally modified P11-4]
pH at which the self-assembling peptides start to undergo self-assembly [2]: about 7.5
